According to PubChem BioAssay (NCI):
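Method: 48-hour compound exposure of cells in 96-well plates, five concentrations, linear interpolation of endpoints. TGI marks complete inhibition of growth.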

Legend:
Assay in all cases: NCI-60 cell line screen, 48 h
[1] = system: HCT-116 colon
[2] = system: SF-268 CNS
[3] = system: DU-145 prostate
[4] = system: UACC-62 melanoma
[5] = system: SF-539 CNS
[6] = system: MOLT-4 leukemia
[7] = system: KM12 colon
[8] = system: SF-295 CNS
[9] = system: MALME-3M melanoma
[10] = system: OVCAR-4 ovarian
[11] = system: NCI-H226 lung
[12] = system: SK-MEL-28 melanoma
[13] = system: HL-60(TB) leukemia
[14] = system: HOP-62 NSCLC
[15] = system: MDA-N
[16] = system: IGROV1 ovarian
[17] = system: NCI-H23 lung
[18] = system: SNB-19 CNS
[19] = system: TK-10 renal
[20] = system: SK-OV-3 ovarian
[21] = system: SN12C renal
[22] = system: NCI-H460 lung
[23] = system: CAKI-1 renal
[24] = system: 786-0 renal
[25] = system: CCRF-CEM leukemia
[26] = system: RXF 393 renal
[27] = system: SK-MEL-2 melanoma
[28] = system: SNB-75 CNS
[29] = system: T-47D breast
[30] = system: SW-620 colon
[31] = system: RPMI-8226 leukemia
[32] = system: HCC-2998 colon
[33] = system: UO-31 renal
[34] = system: LOX IMVI melanoma
[35] = system: EKVX NSCLC
[36] = system: OVCAR-8 ovarian
[37] = system: MCF7 breast
[38] = system: NCI/ADR-RES ovarian
[39] = system: SR leukemia
[40] = system: U251 CNS
[41] = system: UACC-257 melanoma
[42] = system: HCT-15 colon
[43] = system: ACHN renal
[44] = system: MDA-MB-231 breast
[45] = system: MDA-MB-435
[46] = system: HS 578T breast
[47] = system: OVCAR-3 ovarian
[48] = system: SK-MEL-5 melanoma
[49] = system: A549 NSCLC
[50] = system: HT29 colon
[51] = system: M14 melanoma
[52] = system: COLO 205 colon
[53] = system: OVCAR-5 ovarian
[54] = system: PC-3 prostate
[55] = system: NCI-H522 lung
[56] = system: K-562 leukemia
[57] = system: A498 renal
[58] = system: HOP-92 NSCLC
[59] = system: BT-549 breast

CCOC(=O)C(C#N)C1=CC(=O)C(=O)c2ccc(OC)cc21 (configuration not stated)
TGI [1]: 44.8 µM | TGI [2]: > 100 µM | TGI [3]: 38.2 µM | TGI [4]: 28.5 µM | TGI [5]: 33.5 µM | TGI [6]: > 100 µM | TGI [7]: 41.3 µM | TGI [8]: 58.3 µM | TGI [9]: 31 µM | TGI [10]: 33.7 µM | TGI [11]: 49.7 µM | TGI [12]: 41.4 µM | TGI [13]: > 100 µM | TGI [14]: 51.7 µM | TGI [15]: 17.1 µM | TGI [16]: 35.2 µM | TGI [17]: 30.6 µM | TGI [18]: 54.8 µM | TGI [19]: > 100 µM | TGI [20]: 56.7 µM | TGI [21]: 33.8 µM | TGI [22]: 58.6 µM | TGI [23]: 72.2 µM | TGI [24]: 64.9 µM | TGI [25]: > 100 µM | TGI [26]: 47.5 µM | TGI [27]: 28.1 µM | TGI [28]: 58.5 µM | TGI [29]: 34.5 µM | TGI [30]: 33.3 µM | TGI [31]: > 100 µM | TGI [32]: 29.8 µM | TGI [33]: 32 µM | TGI [34]: 40.7 µM | TGI [35]: 51.8 µM | TGI [36]: 54.4 µM | TGI [37]: 31.4 µM | TGI [38]: 51.3 µM | TGI [39]: > 100 µM | TGI [40]: 72.5 µM | TGI [41]: 31.1 µM | TGI [42]: 59.8 µM | TGI [43]: 30.9 µM | TGI [44]: 29.1 µM | TGI [45]: 35.4 µM | TGI [46]: 53.4 µM | TGI [47]: 47.5 µM | TGI [48]: 28.8 µM | TGI [49]: 41 µM | TGI [50]: 94.2 µM | TGI [51]: 29.8 µM | TGI [52]: 32.3 µM | TGI [53]: 40.5 µM | TGI [54]: 77 µM | TGI [55]: 18.7 µM | TGI [56]: > 100 µM | TGI [57]: 58.9 µM

CCn1c(-c2ccccc2)cs/c1=N\C(P(=O)(O)O)P(=O)(O)O
TGI [1]: > 100 µM | TGI [2]: > 100 µM | TGI [3]: > 100 µM | TGI [4]: > 100 µM | TGI [5]: > 100 µM | TGI [6]: > 100 µM | TGI [7]: > 100 µM | TGI [8]: > 100 µM | TGI [9]: > 100 µM | TGI [11]: > 100 µM | TGI [12]: > 100 µM | TGI [13]: > 100 µM | TGI [14]: > 100 µM | TGI [15]: > 100 µM | TGI [16]: > 100 µM | TGI [17]: > 100 µM | TGI [18]: > 100 µM | TGI [19]: > 100 µM | TGI [20]: > 100 µM | TGI [22]: > 100 µM | TGI [23]: > 100 µM | TGI [24]: > 100 µM | TGI [25]: > 100 µM | TGI [26]: > 100 µM | TGI [58]: > 100 µM | TGI [28]: > 100 µM | TGI [30]: > 100 µM | TGI [31]: > 100 µM | TGI [32]: > 100 µM | TGI [33]: > 100 µM | TGI [34]: > 100 µM | TGI [35]: > 100 µM | TGI [36]: > 100 µM | TGI [37]: > 100 µM | TGI [38]: > 100 µM | TGI [39]: > 100 µM | TGI [40]: > 100 µM | TGI [41]: > 100 µM | TGI [42]: > 100 µM | TGI [43]: > 100 µM | TGI [59]: > 100 µM | TGI [44]: > 100 µM | TGI [45]: > 100 µM | TGI [46]: > 100 µM | TGI [47]: > 100 µM | TGI [48]: > 100 µM | TGI [49]: > 100 µM | TGI [50]: > 100 µM | TGI [51]: > 100 µM | TGI [52]: > 100 µM | TGI [53]: > 100 µM | TGI [54]: > 100 µM | TGI [55]: > 100 µM | TGI [56]: > 100 µM | TGI [57]: > 100 µM
